Laboratory results as given in ChEMBL document CHEMBL4765253, “Discovery, synthesis, and optimization of an N-alkoxy indolylacetamide against HIV-1 carrying NNRTI-resistant mutations from the Isatis indigotica root” (Eur J Med Chem, 2020).
pEC50: −log10 of the molar value.

Experiments:
[1] = test system: Human immunodeficiency virus 1; experiment: Antiviral activity against VSVG/wild-type HIV-1 infected in human HEK 293T cells assessed as inhibition of virus replication preincubated with cells for 15 mins prior to viral infection and measured at 48 hrs post-infection by luciferase reporter gene assay; type: functional, organism-based, HEK293T; settings: Human immunodeficiency virus 1, HEK-293T
[2] = test system: HEK-293T; experiment: Cytotoxicity against human HEK 293T cells assessed as reduction in cell viability measured after 48 hrs by Celltiter-glo assay; type: cell-based
[3] = test system: Human immunodeficiency virus 1; experiment: Antiviral activity against VSVG/wild-type HIV-1 infected in human HEK 293T cells assessed as viral infection at 10 uM preincubated with cells for 15 mins prior to viral infection and measured at 48 hrs post-infection by luciferase reporter gene assay; type: functional, HEK293T; settings: time 2895 min, 48.25 h
[4] = test system: HEK-293T; experiment: Cytotoxicity against human HEK 293T cells assessed as cell viability at 30 uM measured after 48 hrs by Celltiter-glo assay; type: cell-based
[5] = Selectivity index, ratio of CC50 for human HEK 293T cells to EC50 for VSVG/wild type HIV1 infected in human HEK 293T cells; type: toxicity, cell-based; settings: read-out: Ratio CC50/EC50

CCc1ccccc1NC(=O)Cc1cn(OC)c2ccccc12
pEC50 [1]: < 5.00
CC50 [2]: > 30 µM
Activity [3]: 64.33%
Activity [4]: 68.5%

COC(=O)c1ccccc1NC(=O)CC1CNc2ccccc21 (configuration not stated)
pEC50 [1]: < 5.00
CC50 [2]: > 30 µM
Activity [3]: 82.96%
Activity [4]: 71.46%

CC(=O)On1cc(CC(=O)Nc2ccccc2Cl)c2ccccc21
pEC50 [1]: < 5.00
CC50 [2]: 28.1 µM
Activity [3]: 146.89%

COc1ccc(COn2cc(CC(=O)Nc3ccccc3Cl)c3ccccc32)cc1
pEC50 [1]: < 5.00
CC50 [2]: 20.3 µM
Activity [3]: 73.2%

COn1cc(CC(=O)Nc2ccccn2)c2ccccc21
pEC50 [1]: < 5.00
CC50 [2]: > 30 µM
Activity [3]: 138.11%
Activity [4]: 63.67%

COn1cc(CC(=O)Nc2ccc([N+](=O)[O-])cc2)c2ccccc21
pEC50 [1]: < 5.00
CC50 [2]: > 30 µM
Activity [3]: 81.41%
Activity [4]: 54%

COn1cc(CC(=O)Nc2ccncc2Cl)c2ccccc21
pEC50 [1]: 6.28
CC50 [2]: 20 µM
selectivity ratio [5]: 37.7

CCCCOn1cc(CC(=O)Nc2ccccc2Cl)c2ccccc21
pEC50 [1]: 6.19
CC50 [2]: 29.1 µM
selectivity ratio [5]: 45.5

COc1ccc(NC(=O)Cc2cn(OC)c3ccccc23)cc1
pEC50 [1]: < 5.00
CC50 [2]: > 30 µM
Activity [3]: 128.61%
Activity [4]: 86.09%

CCCCCCCCCCOn1cc(CC(=O)Nc2ccccc2Cl)c2ccccc21
pEC50 [1]: < 5.00
CC50 [2]: > 30 µM
Activity [3]: 97.73%
Activity [4]: 52.8%

COn1cc(CC(=O)Nc2ccccc2F)c2ccccc21
pEC50 [1]: < 5.00
CC50 [2]: 28.6 µM
Activity [3]: 72.89%

CCOC(=O)c1ccccc1NC(=O)Cc1cn(OC)c2ccccc12
pEC50 [1]: < 5.00
CC50 [2]: 29.1 µM
Activity [3]: 60.76%

COC(=O)c1cccc(NC(=O)Cc2cn(OC)c3ccccc23)c1
pEC50 [1]: < 5.00
CC50 [2]: > 30 µM
Activity [3]: 109.33%
Activity [4]: 50.46%

COC(=O)c1ccccc1NC(=O)Cc1c[nH]c2ccccc12
pEC50 [1]: < 5.00
CC50 [2]: > 30 µM
Activity [3]: 91.98%
Activity [4]: 65.5%

COn1cc(CC(=O)Nc2ccc(C)c(C)c2)c2ccccc21
pEC50 [1]: < 5.00
CC50 [2]: > 30 µM
Activity [3]: 95.02%
Activity [4]: 51.62%

COn1cc(CC(=O)Nc2ccncc2Br)c2ccccc21
pEC50 [1]: 6.18
CC50 [2]: 18.6 µM
selectivity ratio [5]: 28.1

COn1cc(CC(=O)Nc2cccc(Cl)c2)c2ccccc21
pEC50 [1]: < 5.00
CC50 [2]: > 30 µM
Activity [3]: 113%
Activity [4]: 61.02%

CCCCCOn1cc(CC(=O)Nc2ccccc2Cl)c2ccccc21
pEC50 [1]: 6.20
CC50 [2]: 18.7 µM
selectivity ratio [5]: 29.7

COn1cc(CC(=O)Nc2ccccc2C)c2ccccc21
pEC50 [1]: < 5.00
CC50 [2]: > 30 µM
Activity [3]: 53.31%
Activity [4]: 62.74%

COn1cc(CC(=O)Nc2ccc(C)cc2)c2ccccc21
pEC50 [1]: < 5.00
CC50 [2]: > 30 µM
Activity [3]: 124.35%
Activity [4]: 52.47%

CCCCCCCOn1cc(CC(=O)Nc2ccccc2Cl)c2ccccc21
pEC50 [1]: 5.71
CC50 [2]: 23.9 µM
selectivity ratio [5]: 12.2

CCCOn1cc(CC(=O)Nc2ccccc2C(=O)OC)c2ccccc21
pEC50 [1]: 5.17
CC50 [2]: > 30 µM
selectivity ratio [5]: > 4.48
Activity [4]: 55.39%

COc1ccccc1NC(=O)Cc1cn(OC)c2ccccc12
pEC50 [1]: < 5.00
CC50 [2]: > 30 µM
Activity [3]: 71.46%
Activity [4]: 59.57%

COC(=O)c1ccccc1NC(=O)CCCc1cn(OC)c2ccccc12
pEC50 [1]: < 5.00
CC50 [2]: > 30 µM
Activity [3]: 82.07%
Activity [4]: 61.31%

CCCCCCCCOn1cc(CC(=O)Nc2ccccc2Cl)c2ccccc21
pEC50 [1]: 5.36
CC50 [2]: 22.9 µM
selectivity ratio [5]: 5.21

COc1cc(NC(=O)Cc2cn(OC)c3ccccc23)cc(OC)c1
pEC50 [1]: < 5.00
CC50 [2]: 21.6 µM
Activity [3]: 98.07%

COn1cc(CC(=O)Nc2ccccc2Cl)c2ccccc21
pEC50 [1]: 5.48
CC50 [2]: 27.8 µM
selectivity ratio [5]: 8.42

COn1cc(CC(=O)Nc2ccc(Cl)cc2)c2ccccc21
pEC50 [1]: < 5.00
CC50 [2]: > 30 µM
Activity [3]: 103.55%
Activity [4]: 51.01%

O=C(Cc1cn(OCc2ccccc2)c2ccccc12)Nc1ccccc1Cl
pEC50 [1]: 5.07
CC50 [2]: 16.5 µM
selectivity ratio [5]: 1.93

COc1cccc(NC(=O)Cc2cn(OC)c3ccccc23)c1
pEC50 [1]: < 5.00
CC50 [2]: > 30 µM
Activity [3]: 104.29%
Activity [4]: 86.68%

CCCOn1cc(CC(=O)Nc2ccncn2)c2ccccc21
pEC50 [1]: 5.48
CC50 [2]: 17.9 µM
selectivity ratio [5]: 5.43

CCCCCCCCCOn1cc(CC(=O)Nc2ccccc2Cl)c2ccccc21
pEC50 [1]: < 5.00
CC50 [2]: 28.9 µM
Activity [3]: 58.3%

COn1cc(CC(=O)Nc2ccccc2)c2ccccc21
pEC50 [1]: < 5.00
CC50 [2]: 28 µM
Activity [3]: 113.22%

CCCCCOn1cc(CC(=O)Nc2ccncc2Cl)c2ccccc21
pEC50 [1]: 6.89
CC50 [2]: 22 µM
selectivity ratio [5]: 169

COn1cc(CC(=O)Nc2cccnc2)c2ccccc21
pEC50 [1]: < 5.00
CC50 [2]: > 30 µM
Activity [3]: 118.26%
Activity [4]: 78.7%

CCCOn1cc(Cc2ccncc2)c2ccccc21
pEC50 [1]: < 5.00
CC50 [2]: > 30 µM
Activity [3]: 99.48%
Activity [4]: 69.96%

COn1cc(CC(=O)Nc2cc(C)cc(C)c2)c2ccccc21
pEC50 [1]: < 5.00
CC50 [2]: > 30 µM
Activity [3]: 87.28%
Activity [4]: 62.62%

CCCOn1cc(CC(=O)Nc2ccccc2C(F)(F)F)c2ccccc21
pEC50 [1]: 5.37
CC50 [2]: 24.9 µM
selectivity ratio [5]: 5.81

COC(=O)c1ccccc1NC(=O)CCc1cn(OC)c2ccccc12
pEC50 [1]: < 5.00
CC50 [2]: 26.8 µM
Activity [3]: 74.25%

COC(=O)c1ccc(NC(=O)Cc2cn(OC)c3ccccc23)cc1
pEC50 [1]: < 5.00
CC50 [2]: > 30 µM
Activity [3]: 104.33%
Activity [4]: 72.64%

CCCOn1cc(Cc2ccncc2Cl)c2ccccc21
pEC50 [1]: < 5.00
CC50 [2]: > 30 µM
Activity [3]: 65.67%
Activity [4]: 67.37%

CCCOn1cc(CC(=O)Nc2ccncc2F)c2ccccc21
pEC50 [1]: 6.48
CC50 [2]: 14.1 µM
selectivity ratio [5]: 42.8

CCOn1cc(CC(=O)Nc2ccccc2Cl)c2ccccc21
pEC50 [1]: 6.07
CC50 [2]: 20.8 µM
selectivity ratio [5]: 24.2

COC(=O)c1ccccc1NC(=O)Cc1cn(O)c2ccccc12
pEC50 [1]: < 5.00
CC50 [2]: 24.6 µM
Activity [3]: 107.1%

O=C(Cc1cn(OC(=O)c2ccccc2)c2ccccc12)Nc1ccccc1Cl
pEC50 [1]: < 5.00
CC50 [2]: 29.4 µM
Activity [3]: 113.06%

CCCOn1cc(Cc2c(Cl)cncc2Cl)c2ccccc21
pEC50 [1]: < 5.00
CC50 [2]: > 30 µM
Activity [3]: 93.41%
Activity [4]: 77.47%

COn1cc(CC(=O)Nc2ccncc2)c2ccccc21
pEC50 [1]: 5.31
CC50 [2]: 14.3 µM
selectivity ratio [5]: 2.88

COc1cc(NC(=O)Cc2cn(OC)c3ccccc23)cc(OC)c1OC
pEC50 [1]: < 5.00
CC50 [2]: 13.9 µM
Activity [3]: 47.94%
